Source: patent US9932303B2, “N-hydroxymethanesulfonamide nitroxyl donors” (Cardioxyl Pharmaceuticals, Inc., priority 2014, dated 2018)

How the values were obtained:
[1] = tested on: patients with systolic heart failure; conditions: cited from earlier work
[2] = Nitroxyl production via N2O headspace analysis (GC); conditions: PBS, 37° C.
Description: Nitrous oxide (N2O) is produced via the dimerization and dehydration of HNO, and is the most common marker for nitroxyl production (Fukuto et al., Chem. Res. Toxicol. 18:790-801 (2005)). […] Using either nitrous oxide gas or Angeli's salt (AS) as a standard, the relative amounts of N2O released from N-hydroxymethanesulfonamide nitroxyl donating compounds was examined via gas chromatography (GC) headspace analysis.
A procedure for determining the relative amounts of N2O released from N-hydroxymethanesulfonamide nitroxyl donating compounds is as follows. GC was performed on an Agilent gas chromatograph equipped with a split injector (10:1 splitting), microelectron capture detector, and a HP-MOLSIV 30 m×0.32 mm×25 μm molecular sieve capillary column. Helium was used as the carrier (4 mL/min) gas and nitrogen was used as the make-up (20 mL/min) gas. […]
All determinations used a batch of nominal 20 mL headspace vials with volumes pre-measured for sample uniformity (actual vial volume varied by ≤2.0% relative standard deviation (n=6)). The average vial volume for the batch was determined from six randomly-selected vials by calculating the weight difference between the capped and sealed empty (i.e., air-filled) vial and the capped and sealed deionized water-filled vial using the known density of deionized water, then averaging. […]

[3] = In vitro stability in dog plasma; assay type: in vitro ADME; conditions: pH 7.4, 37° C.; for half-life at 5 μM: male, read-out: T1/2 (minutes) Dog
Method: (§1) Certain compounds from Table 1 were tested for their stability in plasma. The assay system comprised (i) PBS, or plasma from rat, dog or human (at least 3 donors, male, pooled) at pH 7.4, and (ii) for tests conducted in plasma, an anticoagulant (sodium heparin or sodium citrate). Each test compound (5 μM) was incubated in PBS or plasma at 37° C. on a THERMOMIXER® with shaking Three samples (n=3) were taken at each of seven sampling time points: 0, 10, 30, 60, 90, 180 and 360 minutes. The samples were immediately combined with 3 volumes (i.e., 3 times the volume of PBS or plasma) of acetonitrile containing 1% formic acid and an internal standard to terminate the reaction. AB SCIEX API 3000 LC-MS/MS analysis of the test compounds was performed without a standard curve. Half-lives (T1/2) of the test compounds were determined from graphs of the percent remaining values using the peak area response ratio.

[4] = In vitro stability in rat plasma; assay type: in vitro ADME; conditions: pH 7.4, 37° C.; for half-life at 5 μM: male, read-out: T1/2 (minutes) Rat
Method: as §1

[5] = In vitro stability in human plasma; assay type: in vitro ADME; conditions: pH 7.4, 37° C.; for half-life at 5 μM: male, read-out: T1/2 (minutes) Human
Method: as §1

SMILES	half-life at 5 μM [3] [min]	melting point [°C]	half-life at 5 μM [4] [min]	half-life at 5 μM [5] [min]	other results
CS(=O)(=O)c1ccccc1S(=O)(=O)NO [CXL-1020, N-hydroxy-2-methanesulfonylbenzene-1-sulfonamide]	–	–	–	–	side effects ([1]; at threshold doses needed to produce hemodynamic effects, intravenous): unacceptable levels of inflammatory irritation at and distal to the intravenous insertion site; hemodynamic effects ([1]; patients with systolic heart failure, intravenously as an aqueous solution at pH=4): reduced both left and right heart filling pressures and systemic vascular resistance, while increasing cardiac and stroke volume index
O=[N+]([O-])c1ccccc1CS(=O)(=O)NO [Compound 1, N-Hydroxy-1-(2-nitrophenyl)methanesulfonamide]	26	163	–	–	Relative N2O Yield (90 minute incubation) [2]: 37%
O=S(=O)(Cc1cccc(Cl)c1)NO [Compound 3, 1-(3-Chlorophenyl)-N-hydroxymethanesulfonamide]	70	150	40	52	–
O=S(=O)(Cc1ccccc1Cl)NO [Compound 4, 1-(2-Chlorophenyl)-N-hydroxymethanesulfonamide]	36	124	38	28	–
Cc1cccc(CS(=O)(=O)NO)c1 [Compound 5, N-Hydroxy-1-(3-methylphenyl)methanesulfonamide]	55	98	61	81	–
O=S(=O)(Cc1ccccc1C(F)(F)F)NO [Compound 7, N-Hydroxy-1-[2-(trifluoromethyl)phenyl]methanesulfonamide]	25	123	–	–	–
O=S(=O)(Cc1cc(Cl)ccc1Cl)NO [Compound 10, 1-(2,5-Dichlorophenyl)-N-hydroxymethanesulfonamide]	27	158	12	12	–
O=S(=O)(Cc1ccc(Cl)cc1Cl)NO [Compound 11, 1-(2,4-Dichlorophenyl)-N-hydroxymethanesulfonamide]	45	158	–	–	–
O=S(=O)(Cc1ccc(Cl)c(Cl)c1)NO [Compound 12, 1-(3,4-Dichlorophenyl)-N-hydroxymethanesulfonamide]	60	175	54	34	–
O=S(=O)(Cc1cccc(C(F)(F)F)c1)NO [Compound 17, N-Hydroxy-1-[3-(trifluoromethyl)phenyl]methanesulfonamide]	29	132	–	–	–
O=S(=O)(Cc1c(F)cccc1Cl)NO [Compound 19, 1-(2-Chloro-6-fluorophenyl)-N-hydroxymethanesulfonamide]	–	127	–	–	–
O=S(=O)(Cc1cc(F)cc(F)c1)NO [Compound 20, 1-(3,5-Difluorophenyl)-N-hydroxymethanesulfonamide]	33	136	–	–	–
O=S(=O)(Cc1c(Cl)cccc1Cl)NO [Compound 21, 1-(2,6-Dichlorophenyl)-N-hydroxymethanesulfonamide]	–	140	–	–	–
O=S(=O)(Cc1noc2ccccc12)NO [Compound 22, 1-1,2-Benzoxazol-3-yl-N-hydroxymethanesulfonamide]	21	143	18	25	–
O=S(=O)(Cc1ccc2oncc2c1)NO [Compound 26, 1-(Benzo[d]isoxazol-5-yl)-N-hydroxymethanesulfonamide]	–	117	–	–	–
CC(c1ccc(Cl)cc1)S(=O)(=O)NO (centres unmarked) [Compound 27, 1-(4-Chlorophenyl)-N-hydroxyethanesulfonamide]	–	129	–	–	–
CC(C)(c1ccc(Cl)cc1)S(=O)(=O)NO [Compound 28, 2-(4-Chlorophenyl)-N-hydroxypropane-2-sulfonamide]	–	–	–	–	T1/2 (minutes) Rat ([4]; 5 μM): 48 min; T1/2 (minutes) Dog ([3]; 5 μM): 26 min; T1/2 (minutes) Human ([5]; 5 μM): 37 min
O=S(=O)(NO)C1(c2ccc(Cl)cc2)CC1 [Compound 29, 1-(4-Chlorophenyl)-N-hydroxycyclopropane-1-sulfonamide]	–	138	–	–	–

Second part, led by results:

half-life at 5 μM [3] [min]	melting point [°C]	half-life at 5 μM [4] [min]	half-life at 5 μM [5] [min]	SMILES	other results
34	158	–	–	O=S(=O)(Cc1ccc(F)cc1)NO [Compound 6, 1-(4-Fluorophenyl)-N-hydroxymethanesulfonamide]	–
46	166	36	31	O=S(=O)(Cc1ccc(F)cc1F)NO [Compound 8, 1-(2,4-Difluorophenyl)-N-hydroxymethanesulfonamide]	–
30	125	–	–	O=S(=O)(Cc1cc(F)ccc1F)NO [Compound 9, 1-(2,5-Difluorophenyl)-N-hydroxymethanesulfonamide]	–
42	109	–	–	O=S(=O)(Cc1cccc(F)c1)NO [Compound 13, 1-(3-Fluorophenyl)-N-hydroxymethanesulfonamide]	–
31	118	–	–	O=S(=O)(Cc1ccccc1F)NO [Compound 14, 1-(2-Fluorophenyl)-N-hydroxymethanesulfonamide]	–
45	161	–	–	O=S(=O)(Cc1cccc(Br)c1)NO [Compound 15, 1-(3-Bromophenyl)-N-hydroxymethanesulfonamide]	–
42	160	–	–	O=S(=O)(Cc1ccc(Br)cc1)NO [Compound 16, 1-(4-Bromophenyl)-N-hydroxymethanesulfonamide]	–
74	156	42	33	O=S(=O)(Cc1ccc(C(F)(F)F)cc1)NO [Compound 18, N-Hydroxy-1-[4-(trifluoromethyl)phenyl]methanesulfonamide]	–
